This note sets out measurements from PMC7341856 (Scientific Reports, 2020).

The subject of data set [1] is S. aureus NCTC 5655. Briefly: microbe, parasite or virus in culture. Type of data set: cell-based. To be noted: Staphylococcus aureus, NCTC5655, Erythrocyte, in Ovis aries, read-out: IC50 (antihemolytic).
Data set [2] concerns S. aureus 8325-4. Briefly: microbe, parasite or virus in culture. Type of data set: cell-based. As to conditions: Staphylococcus aureus, 83254, Erythrocyte, in Ovis aries, read-out: IC50 (antihemolytic).
In data set [3] the test system is S. aureus NCTC 5655. As to the kind of experiment: microbe, parasite or virus in culture. Type of data set: cell-based, Staphylococcus aureus. To be noted: for MBC: Staphylococcus aureus, NCTC5655, 24 h, read-out: Minimal bactericidal concentration MBC.
For data set [4], the system named is S. aureus 8325-4. As to the kind of experiment: microbe, parasite or virus in culture. Type of data set: cell-based, Staphylococcus aureus. To be noted: for MBC: Staphylococcus aureus, 83254, 24 h, read-out: Minimal bactericidal concentration MBC.
For data set [5], the target named is T1, S. aureus α-hemolysin (αHL) (Staphylococcus aureus, UniProt P09616). As to the kind of experiment: cell-based.
T1 sequence (P09616 27-319 limits assumed): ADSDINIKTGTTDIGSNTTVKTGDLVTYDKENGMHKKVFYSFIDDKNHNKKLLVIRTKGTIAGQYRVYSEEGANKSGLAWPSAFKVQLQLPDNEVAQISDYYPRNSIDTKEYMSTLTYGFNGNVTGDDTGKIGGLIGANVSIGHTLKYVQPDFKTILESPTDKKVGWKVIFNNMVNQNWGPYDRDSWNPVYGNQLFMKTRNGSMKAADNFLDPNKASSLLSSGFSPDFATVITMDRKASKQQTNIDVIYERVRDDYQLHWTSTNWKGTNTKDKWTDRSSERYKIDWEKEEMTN
For another data set, the system named is erythrocyte membrane. Type of data set: cell-based, sheep.
In data set [6] the target is T1, S. aureus α-hemolysin (αHL). To be noted: sheep.

Molecules are shown by their SMILES. Values after ≈ are worked out from the molar mass of the structure shown. Values joined by “and” are separate entries in the source; they are usually repeats but may differ in a detail not shown here. Equal entries are not always repeated.

As to `O=C(OCC1OC(OC(=O)c2cc(O)c(O)c(O)c2)C(OC(=O)c2cc(O)c(O)c(O)c2)C(OC(=O)c2cc(O)c(O)c(OC(=O)c3cc(O)c(O)c(O)c3)c2)C1OC(=O)c1cc(O)c(O)c(O)c1)c1cc(O)c(O)c(OC(=O)c2cc(O)c(O)c(O)c2)c1` [Compound T1, 3,6-bis-O-di-O-galloyl-1,2,4-tri-O-galloyl-β-D-glucose], the IC50 – broadly, the concentration needed to halve the response being measured – turned out to be 7.26 ± 0.29 µM in the data set on S. aureus NCTC 5655 [1], 8.7 ± 0.81 µM with S. aureus 8325-4 [2] and 2.94 ± 1.45 µM in data set [5]. Moreover, the MBC in the data set with S. aureus NCTC 5655 [3] was 25 µM (≈ 31.1 µg/mL); in the data set with S. aureus 8325-4 [4] it was 50 µM (≈ 62.2 µg/mL).

Regarding `O=C(OCC1OC(OC(=O)c2cc(O)c(O)c(O)c2)C(OC(=O)c2cc(O)c(O)c(O)c2)C(OC(=O)c2cc(O)c(O)c(O)c2)C1OC(=O)c1cc(O)c(O)c(O)c1)c1cc(O)c(O)c(O)c1` [Compound T2, 1,2,3,4,5-penta-O-galloyl-β-D-glucose], the figures for the IC50 (with S. aureus NCTC 5655 [1]; in the data set with S. aureus 8325-4 [2]; in data set [5]) were 13 ± 1.18 µM, 22.4 ± 2.8 µM and 3.52 ± 1.37 µM, respectively. Further, the MBC with S. aureus NCTC 5655 [3] worked out at 50 µM (≈ 47 µg/mL); in the data set with S. aureus 8325-4 [4], 75 µM (≈ 70.6 µg/mL). Further, in the data set with erythrocyte membrane, the “order parameter S/S0” value is 1.267 ± 0.0398 and 0.662 ± 0.072.

Take `O=C(OC1C(O)C(CO)OC2OC(=O)c3cc(Oc4c(C(=O)O)cc(O)c(O)c4O)c(O)c(O)c3-c3c(cc(O)c(O)c3O)C(=O)OC21)c1cc(O)c(O)c(O)c1` [Compound T3, 3-O-galloyl-1,2-valoneoyl-β-D-glucose]: the IC50 in the data set with S. aureus NCTC 5655 [1] was 90.6 ± 22.7 µM; in the data set with S. aureus 8325-4 [2], 52.2 ± 1.2 µM; in data set [5] it was 27.5 ± 1.06 µM. In addition, the MBC in the data set on S. aureus NCTC 5655 [3] and in the data set with S. aureus 8325-4 [4] was 100 µM (≈ 80.3 µg/mL) each time. In addition, the “order parameter S/S0” value in the data set with erythrocyte membrane was 0.947 ± 0.028 and 0.911 ± 0.042. Further, in data set [6], the “increase of IC50 after washing of erythrocytes” value is “approximately 40 fold”.

Regarding `O=C(OC1OC2COC(=O)c3cc(Oc4c(C(=O)O)cc(O)c(O)c4O)c(O)c(O)c3-c3c(cc(O)c(O)c3O)C(=O)OC2C(O)C1OC(=O)c1cc(O)c(O)c(O)c1)c1cc(O)c(O)c(O)c1` [Compound T4, 1,2-di-O-galloyl-4,6-valoneoyl-β-D-glucose], the values for the IC50 (in the data set with S. aureus NCTC 5655 [1]; in the data set with S. aureus 8325-4 [2]; in data set [5]) were 59.5 ± 9.6 µM, 60.4 ± 3.3 µM and 14.5 ± 1.1 µM, respectively. Besides, the “Minimal bactericidal concentration MBC” value in the data set on S. aureus NCTC 5655 [3] and in the data set on S. aureus 8325-4 [4] was 75 µM (≈ 71.6 µg/mL) each time. Also, the MBC in the data set on S. aureus NCTC 5655 [3] and in the data set on S. aureus 8325-4 [4] was 100 µM (≈ 95.5 µg/mL) in each case. For the same compound, the “order parameter S/S0” value in the data set with erythrocyte membrane was 1.074 ± 0.059 and 0.885 ± 0.073. In addition, the “increase of IC50 after washing of erythrocytes” value in data set [6] is recorded as “approximately 40 fold”.
